# Results: patent US20250032460A1, “METHODS OF TREATING NEUROLOGICAL DISORDERS” (MapLight Therapeutics, Inc., priority 2021, published 2025)
# How the values were obtained:
# [1] = tested on: Compound 1 induced salivation; test: Fesoterodine dose-response antagonistic effect on Compound 1 induced salivation in anaesthetized rats; type: in vivo, Sprague Dawley rats
# Procedure: An in vivo primary pharmacology study evaluating the fesoterodine fumarate dose-response antagonistic effect on Compound 1 induced salivation in anaesthetized male Sprague Dawley rats was conducted. […] Intravenous fesoterodine doses were administered at […]. Fesoterodine was dosed 10 minutes prior to dosage of Compound 1. All animals were normal with no observed abnormality detected in clinical signs or behavior. Salivation was measured by using oral dry swab in anesthetized rats with the calculated difference between the dry swab weight and the wet swab weight indicating the weight of saliva produced. Samples were collected post-dosing for one hour at 10-minute intervals.
# [2] = tested on: salivation; test: Single ascending dose study: salivation (pharmacodynamics); type: in vivo, healthy adult volunteers; details: Group 2: 8 mg fesoterodine fumarate 4 hours prior to 40 mg Compound 1, vs placebo pre-treatment (FIG. 2)
# Procedure: MTD was established at the dose which produced mild to moderate cholinergic adverse effects. Cholinergic effects were monitored for each dose, including pupillometry and salivation.
# Group 2 evaluated tolerability of Compound 1 at Group 1 MTD with or without fesoterodine fumarate co-administration. Subjects received 8 mg of fesoterodine fumarate tablet or matched placebo tablet 4 hours prior to administration of 40 mg of Compound 1.
# [3] = Clinical observations during 7-day oral dosing in beagle dogs; details: for Clinical Observation: Group 2: fesoterodine fumarate 3 mg/kg/day PO, individual dog
# [4] = Fesoterodine 0.0078 mg/mL IV 10 min prior to Compound 1 (1.5 mg/kg) IV
# [5] = Fesoterodine 0.0156 mg/mL IV 10 min prior to Compound 1 (1.5 mg/kg) IV
# [6] = Fesoterodine 0.0312 mg/mL IV 10 min prior to Compound 1 (1.5 mg/kg) IV
# [7] = Fesoterodine 0.0625 mg/mL IV 10 min prior to Compound 1 (1.5 mg/kg) IV
# [8] = Fesoterodine 0.125 mg/mL IV 10 min prior to Compound 1 (1.5 mg/kg) IV
# [9] = Fesoterodine 0.25 mg/mL IV 10 min prior to Compound 1 (1.5 mg/kg) IV
# [10] = Fesoterodine 0.5 mg/mL IV 10 min prior to Compound 1 (1.5 mg/kg) IV
smiles,measurement,setting,value
"CC(C)C(=O)Oc1ccc(CO)cc1[C@H](CCN(C(C)C)C(C)C)c1ccccc1 [Fesoterodine, fesoterodine]","Salivation (mg) (mean value), 10 min",[1]; [4],347.49 mg
same,"Salivation (mg) (mean value), 20 min",[1]; [4],90.03 mg
same,"Salivation (mg) (mean value), 30 min",[1]; [4],26.31 mg
same,"Salivation (mg) (mean value), 40 min",[1]; [4],10.29 mg
same,"Salivation (mg) (mean value), 50 min",[1]; [4],9.96 mg
same,"Salivation (mg) (mean value), 60 min",[1]; [4],7.74 mg
same,"Salivation (mg) (mean value), Total",[1]; [4],491.83 mg
same,"Salivation (mg) (mean value), 10 min",[1]; [5],163.43 mg
same,"Salivation (mg) (mean value), 20 min",[1]; [5],69.8 mg
same,"Salivation (mg) (mean value), 30 min",[1]; [5],30.58 mg
same,"Salivation (mg) (mean value), 40 min",[1]; [5],16.26 mg
same,"Salivation (mg) (mean value), 50 min",[1]; [5],11.66 mg
same,"Salivation (mg) (mean value), 60 min",[1]; [5],5.71 mg
same,"Salivation (mg) (mean value), Total",[1]; [5],297.45 mg
same,"Salivation (mg) (mean value), 10 min",[1]; [6],95.37 mg
same,"Salivation (mg) (mean value), 20 min",[1]; [6],61.86 mg
same,"Salivation (mg) (mean value), 30 min",[1]; [6],29.68 mg
same,"Salivation (mg) (mean value), 40 min",[1]; [6],8.31 mg
same,"Salivation (mg) (mean value), 50 min",[1]; [6],8.78 mg
same,"Salivation (mg) (mean value), 60 min",[1]; [6],6.64 mg
same,"Salivation (mg) (mean value), Total",[1]; [6],210.64 mg
same,"Salivation (mg) (mean value), 10 min",[1]; [7],66.8 mg
same,"Salivation (mg) (mean value), 20 min",[1]; [7],27.58 mg
same,"Salivation (mg) (mean value), 30 min",[1]; [7],12.89 mg
same,"Salivation (mg) (mean value), 40 min",[1]; [7],9.18 mg
same,"Salivation (mg) (mean value), 50 min",[1]; [7],6.56 mg
same,"Salivation (mg) (mean value), 60 min",[1]; [7],2.45 mg
same,"Salivation (mg) (mean value), Total",[1]; [7],125.47 mg
same,"Salivation (mg) (mean value), 10 min",[1]; [8],45.22 mg
same,"Salivation (mg) (mean value), 20 min",[1]; [8],21.91 mg
same,"Salivation (mg) (mean value), 30 min",[1]; [8],7.85 mg
same,"Salivation (mg) (mean value), 40 min",[1]; [8],5.06 mg
same,"Salivation (mg) (mean value), 50 min",[1]; [8],4.73 mg
same,"Salivation (mg) (mean value), 60 min",[1]; [8],3.5 mg
same,"Salivation (mg) (mean value), Total",[1]; [8],88.27 mg
same,"Salivation (mg) (mean value), 10 min",[1]; [9],7 mg
same,"Salivation (mg) (mean value), 20 min",[1]; [9],3.13 mg
same,"Salivation (mg) (mean value), 30 min",[1]; [9],3.17 mg
same,"Salivation (mg) (mean value), 40 min",[1]; [9],2.15 mg
same,"Salivation (mg) (mean value), 50 min",[1]; [9],2.49 mg
same,"Salivation (mg) (mean value), 60 min",[1]; [9],1.37 mg
same,"Salivation (mg) (mean value), Total",[1]; [9],19.31 mg
same,"Salivation (mg) (mean value), 10 min",[1]; [10],7.23 mg
same,"Salivation (mg) (mean value), 20 min",[1]; [10],2.83 mg
same,"Salivation (mg) (mean value), 30 min",[1]; [10],1.21 mg
same,"Salivation (mg) (mean value), 40 min",[1]; [10],4.11 mg
same,"Salivation (mg) (mean value), 50 min",[1]; [10],2.5 mg
same,"Salivation (mg) (mean value), 60 min",[1]; [10],1.8 mg
same,"Salivation (mg) (mean value), Total",[1]; [10],19.69 mg
same,Fesoterodine effect with Compound 1 on salivation,[1]; Fesoterodine 0.0078-0.5 mg/mL IV prior to Compound 1,significant decrease of salivation in a consistent dose-responsive manner
same,effect of fesoterodine pre-treatment on the increase in salivation post Compound 1 dosing,[2]; listed as fesoterodine,nearly abolished both subjective reports of hypersalivation and the objective increase in saliva volume
same,effect of fesoterodine pre-treatment on the increase in salivation post Compound 1 dosing,[2]; listed as fesoterodine fumarate,not observed
same,peripheral side effects observed after dosing,"[3]; Group 1 Compound 1 1.5 mg/kg/day PO alone, Group 3 with fesoterodine fumarate 3 mg/kg/day PO, 7 days",substantially reduced the peripheral effects
same,Clinical Observation,[3]; 7 day period,none
same,Clinical Observation,[3]; day 1,"For D2001, miosis was found 1 hr 10 min after dosing on day 1. 2 hr"
